Reference: patent US10138466B2, “Compositions and methods for differentiating stem cells into cell populations comprising beta-like cells” (REGENERATIVE MEDICAL SOLUTIONS, INC., priority 2014, dated 2018)

Columns and labels:
[1] = tested on: iPS derived beta-cell clusters; test: Response of iPS derived beta-cell clusters to tolbutamide; format: cell-based, human
Description: Experiments were conducted to determine the effect of shipping induced islet cells on Transwells. Cells were differentiated according to the protocol described in Example 15. (ProgenMixIII). Total differentiation time was 27 days and the final product was islet-like-clusters (ILCs) in suspension. On the day of shipment, ILCs were counted and divided into individual mouse dosages: one mouse dosage per bottle. Cells were sent by FedEx overnight at 4° C. using cold packs. Leftover ILCs from shipment were used as controls.
Results are shown in FIGS. 36-42. iPS derived beta-cell clusters responded to glucose challenge and tolbutamide, a KATP channel closer.

NKX6.1 expression = test: EGF at stage 5 of differentiation, NKX6.1 expression; format: cell-based, human; settings: Ten to fifty ng/ml EGF at stage 5
Description: EGF was added at stage 5.

differentiated cells = test: GSIS test of differentiated cells with Warfarin in stage 6 medium; format: cell-based, human
Description: 300 ng/ml Noggin was added in step 4 and 10 uM ALK5i was added in step 5. In the final step, cells were transferred from transwell to suspension culture (in low attachment wells or flasks). […]
Warfarin was added at stage 6.

T cell = settings: high concentrations (1 μg/mL), murine models of T1D; cited from earlier work

Which “response to tolbutamide, a KATP channel closer” value [1] does the source give for `CCCCNC(=O)NS(=O)(=O)c1ccc(C)cc1` [tolbutamide] here?
The value was “responded”.

For “EGF: growth factor added at stage 5 of differentiation”, which “NKX6.1 expression at end” value (NKX6.1 expression) is on record?
The value was “enhance NKX6.1 expression”.

Which “SI (stimulation index) in GSIS test” value (differentiated cells; 2 uM Warfarin in stage 6) does the source give for `CC(=O)CC(c1ccccc1)c1c(O)c2ccccc2oc1=O` (stereo not drawn) [Warfarin] here?
The value was 3.0.

And the “SI (stimulation index) in GSIS test” value (differentiated cells; 5 uM Warfarin in stage 6)?
Its value is 3.8.

What about the “stimulation index in GSIS test” value (differentiated cells; warfarin in the final media) of the same molecule?
Its value is “significantly increased”.

Which “action on T cells” value (T cell) does the source give for “CXCL12: immune modulating chemokine, T-cell chemorepellent” here?
Its value is “T cell chemorepellent”.
